Experimental data reported in ChEMBL document CHEMBL4000169, “Overexpression of the Global Regulator LaeA in Chaetomium globosum Leads to the Biosynthesis of Chaetoglobosin Z” (J Nat Prod, 2016).

Tested on: HepG2
Assay: Cytotoxicity against human HepG2 cells by MTT assay
Format: functional, cell-based

SMILES	IC50
CC1=C(C)[C@H]2[C@H](Cc3c[nH]c4ccccc34)NC(=O)[C@]23C(=O)CC[C@H](O)C(=O)/C(C)=C/[C@@H](C)C/C=C/[C@H]3[C@@H]1O [CHAETOGLOBOSIN E]	3.6 µM
CC1=C(C)[C@H]2[C@H](Cc3c[nH]c4ccccc34)NC(=O)[C@]23C(=O)CCC(=O)[C@H](O)/C(C)=C/[C@@H](C)C/C=C/[C@H]3[C@@H]1O	8.5 µM
C/C1=C\[C@@H](C)C/C=C/[C@H]2[C@@H]3O[C@]3(C)[C@@H](C)[C@H]3[C@H](Cc4c[nH]c5ccccc45)NC(=O)[C@]32C(=O)/C=C/C(=O)[C@@H]1O [CHAETOGLOBOSIN A]	6.3 µM
C/C1=C\[C@@H](C)C/C=C/[C@H]2C(=O)[C@@H](C)[C@@H](C)[C@H]3[C@H](Cc4c[nH]c5ccccc45)NC(=O)[C@]32C(=O)/C=C/C(=O)[C@@H]1O	2.9 µM
CC1=C(C)[C@H]2[C@H](Cc3c[nH]c4ccccc34)NC(=O)[C@]23C(=O)/C=C/C(=O)[C@H](O)/C(C)=C/[C@@H](C)C/C=C/[C@H]3[C@@H]1O [CHEATOGLOBOSIN B]	5.2 µM
CC1=C(O)C(=O)[C@H]2CC(=O)[C@@]34C(=O)N[C@@H](Cc5c[nH]c6ccccc56)[C@@H]3C(C)=C(C)[C@@H](O)[C@@H]4/C=C/C[C@H](C)[C@H]12	12.8 µM
COc1cc([C@@H]2c3cc4c(cc3[C@@H](O[C@@H]3O[C@@H]5CO[C@@H](C)O[C@H]5[C@H](O)[C@H]3O)[C@H]3COC(=O)[C@H]23)OCO4)cc(OC)c1O [ETOPOSIDE]	15.8 µM
